# Results published in patent publication US20170296568A1, “SIRTUIN GENE POTENTIATOR, AND PHARMACEUTICAL PRODUCT, COSMETIC PRODUCT, AND FOOD PRODUCT USING SAME” (MORISHITA JINTAN CO., LTD., priority 2012, published 2017).
# Legend:
# Type in all cases: cell-based, human
# sirtuin gene hSIRT1 = test: Expression level of endogenous sirtuin gene hSIRT1 in Caco-2 cells (quantitative PCR, relative to β-actin); settings: 10 μM, 2 days, qPCR normalised to β-actin, FIG. 2
# Procedure: Caco-2 cells were plated at 3.0×10^5 cells for a 5-mL dish. After 24 hours, each polyphenol was added to be 10 μM. Note that as a negative control, none of polyphenol nor terpenoid was added, and as a positive control, 10 μM resveratrol was added. At 2 days after this treatment, RNA was collected.
# The total RNA was prepared using High Pure RNA Isolation Kit (manufactured by Roche, Indianapolis, Ind., USA). For the procedures from the total RNA preparation to the reverse transcription, the reagents and tools used were RNase-free. Cells were prepared in a sub-confluent to confluent condition in a cell culture dish (Greiner bio-one, Monroe, N.C., USA). The medium was completely removed, 200 μL of PBS, and 400 μL of cell lysis solution, which was contained in High Pure RNA Isolation Kit, were added, and the entire dish was well covered by the cell lysis solution. When the viscosity of the cell lysis solution was decreased, the cell lysis solution was collected into a 1.5-mL sample tube. The collected sample was well suspended. A filter tube and a collection tube, which were contained in High Pure RNA Isolation Kit, were assembled, and the sample was pipetted into a buffer reservoir in the upper portion of the filter tube, and was centrifuged at 8,000×g for 15 seconds. The flowthrough liquid into the collection tube was discarded, and the filter tube and the collection tube were again assembled. Then, 90 μL of DNase incubation buffer per sample was pipetted into a sterile reaction tube, and 10 μL of DNase I was added into the tube and mixed. The mixture liquid was pipetted into the buffer reservoir in the upper portion of the filter tube, was added on the glass fiber fleece in the filter tube, and was incubated at room temperature for 15 minutes. Then, 500 μL of wash buffer I, which was contained in High Pure RNA Isolation Kit, was added to the buffer reservoir in the upper portion of the filter tube, and was centrifuged at 8,000×g for 15 seconds. The flowthrough liquid into the collection tube was discarded, and the filter tube and the collection tube were again assembled. Then, 500 μL of wash buffer II was added to the buffer reservoir in the upper portion of the filter tube, and centrifugation was performed at 8,000×g for 15 seconds. The liquid discharged to the collection tube was discarded, and the filter tube and the collection tube were again assembled. Then, 200 μL of wash buffer II was added to the buffer reservoir in the upper portion of the filter tube, and centrifugation was performed at 13,000×g for 2 minutes, after which a remaining wash buffer in the filter tube was removed. The collection tube was discarded, the filter tube was inserted into a sterile reaction tube, and 50 μL of elution buffer was added in the filter tube, and centrifugation was performed at 8,000×g for 1 minute. The eluate obtained by the procedures was taken as an RNA solution. The concentration of RNA in the solution was calculated based on the light absorbance at 260 nm with a NanoDrop 2000/2000c spectrophotometer (Thermo Scientific, Waltham, Mass., USA), for use in subsequent experiments.
# Then, 5 pmol of oligo(dT)20 primer was added to 1.0 μg of total RNA extracted from the cells, and sterile water was further added thereto so that the total liquid amount was 13 μL. Heat treatment was performed using a thermal cycler (Peltier Thermal Cycler PTC-200, MJ Research, Watertown, Mass., USA) at 65° C. for 5 minutes, and the resultant was immediately transferred in ice to quench it. During this treatment, the reverse transcriptase reaction program was advanced to the 42° C. stage and was temporarily stopped. A mixture solution obtained by mixing 4 μL of reverse transcriptase reaction buffer solution, 2 μL of 1 mM dNTPs (Amershan Pharmacia Biotech., Buckinghamshire, UK), and 0.5 μL of reverse transcriptase ReverTra Ace (TOYOBO, Osaka, Japan) per sample was added to and gently mixed with the sample on ice after 5 minutes. […]
# hSIRT1 promoter [1] = test: Screening for SIRT1 enhancing polyphenol or terpenoid: hSIRT1 promoter activity (EGFP fluorescence) in Caco-2-hSIRT1p-EGFP cells; settings: 10 μM, 2 days after addition, relative ratio to control (PBS), FIG. 1
# Excerpt: First, the promoter region (−1593 to −1 bp) of hSIRT1 (human SIRT1) was acquired using the LA-PCR method using, as a template, a human genome DNA extracted from TIG-1 cells (obtained from Institute of Development, Aging and Cancer, Tohoku University), with primers synthesized based on reported information of the hSIRT1 genomic sequence so as to synthesize primers having added AseI and NheI recognition sequences at their respective ends (hSIRT1p-AseI (SEQ ID NO: 1) and hSIRT1p-NheI (SEQ ID NO: 2)). The PCR reaction condition was at 94° C. for 1 minute, followed by at 98° C. for 20 seconds; and at 68° C. for 2 minutes, 34 cycles; and then at 72° C. for 10 minutes for extension reaction. LA-Taq from Takara Shuzo Co., Ltd. was used as the TaqDNApolymerase. The primers were synthesized by Nippon EGT based on our request.
# The hSIRT1 promoter fragment obtained by the LA-PCR was subjected to TA cloning using a pGEM-T Easy vector (manufactured by Promega KK). Furthermore, the base sequence thereof was confirmed by sequencing. The hSIRT1 promoter fragment, inserted into the pGEM-T Easy vector, was cut out by digestion with the restriction enzymes AseI and NheI, and the CMV promoter of a pEGFP-C3 (manufactured by Takara Bio Inc.) was removed by digestion with AseI and NheI in a similar manner, and the hSIRT1 promoter fragment was inserted into that removed site, so that phSIRT1p-EGFP was obtained.
# Transfection was performed using a LIPOFECT AMINE 2000 REAGENT (manufactured by Life Technologies) according to its protocol. On the day before the transfection, Caco-2 cells (human colonic cancer-derived cells obtained from Riken BioResource Center) were plated at 1.0×10^6 in a 10-mL dish. On the day of the transfection, phSIRT1p-EGFP (10 μg) was diluted in a serum-free OPTI-MEM medium to a volume of 750 μL, after which 15 μL of LIPOFECT AMINE Reagent was diluted in a serum-free OPTI-MEM medium to […], and they were incubated at room temperature for 5 minutes. The transfection using the LIPOFECT AMINE Reagent was performed in the absence of serum, during which the culture medium of the Caco-2 cells plated on the previous day was removed, and was replaced by 5 mL of serum-free OPTI-MEM medium. After 30 minutes of this, 1.5 mL of DNA-LIPOFECT AMINE 2000 mixture was added to each 10-mL dish. After the addition, the dish was gently shaken to mix the DNA-LIPOFECT AMINE and the OPTI-MEM. After the culture for 3 hours, the DNA-LIPOFECT AMINE mixture solution was removed, and the medium was replaced by a serum-containing culture medium. Subsequently, culture was performed under the environment at 5% CO2/95% air and 37° C. for 21 hours, and the culture medium was replaced by a new one.
# Since phSIRT1p-EGFP is resistant to the drug G418, the drug G418 was added to the transfected cells to 70 μg/mL to subject them to the drug selection for a week. The culture medium was replaced by a new one every three days, and G418 was added every time at the same concentration. Accordingly, Caco-2-hSIRT1p-EGFP cells were obtained.
# Caco-2-hSIRT1p-EGFP cells were plated at 0.6×10^4 cells/well in a 96-well plate. On the next day, 10 μM polyphenol or terpenoid, or control (PBS) was added to each well. At 2 days after the addition, the culture solution was aspirated, after which 100 μL of 4% paraformaldehyde was added to each well, and the plate was allowed to stand at room temperature for 10 minutes. After the plate was allowed to stand for 10 minutes, 4% paraformaldehyde was aspirated, 100 μL of Cellstain (registered trademark)-Hoechst 33342 solution (Dojindo) diluted 1/500 with PBS was added to each well, and the plate was allowed to stand at room temperature in the dark for 15 minutes and the solution was then aspirated. Then, 100 μL of PBS was added to each well, and the fluorescence intensity was measured using an IN Cell Analyzer 1000 (GE Healthcare, Amersham Place, UK). The promoter activity was represented by a relative ratio to the activity of the control.
# hSIRT1 promoter [2] = test: Enhancing the hSIRT1 promoter: EGFP fluorescence intensity in HaCaT-hSIRT1p-EGFP cells by flow cytometry; settings: 10 μM in DMSO, 24 hours after addition, FIG. 4
# Procedure: HaCaT cells (human epidermis keratinocyte-derived cell lines, provided by Dr. Takumi Miura, National Center for Child Health and Development) were cultured using a Dalbecco's Modified Eagle Medium (DMEM) medium (Nissui Pharmaceutical Co., Ltd, Tokyo) supplemented with 10% FBS, 100,000 U/L penicillin (Meiji, Tokyo), 100 mg/L streptomycin (Meiji), and 2.0 g/L NaHCO3. These cells were subcultured at 37° C. in the presence of 5% CO2.
# HaCaT cell lines (HaCaT-hSIRT1p-EGFP cells) into which the vector (phSIRT1-EGFP) described in Reference Example 1 was integrated were prepared as below.
# The HaCaT cells were disseminated at 9.0×10^5 in a φ60-mm dish, and were cultured in 10% FBS supplemented DMEM medium. Cells as a control were prepared in a similar manner. After 24 hours, 8 μg of phSIRT1p-EGFP was added to and mixed with 300 μL of DMEM medium, 24 μL of Hilymax (manufactured by Dojindo Laboratories), which is a transfection reagent, was further added and mixed therewith, and the mixture was incubated for 15 minutes at room temperature. Subsequently, the total amount was added to the HaCaT cells. After 3 hours, the medium was replaced by 10% FBS supplemented DMEM medium.
# At 24 hours after the gene introduction, the medium was replaced by 10% FBS supplemented DMEM medium containing 750 μg/mL of G418 (Wako Pure Chemical Industries, Ltd.). After visually confirming under a microscope that all the control non-treated HaCaT cells were killed, the subculture was continued using 10% FBS supplemented DMEM containing 150 μg/mL of G418.
# It was confirmed with flow cytometry that the phSIRT1p-EGFP vector was reliably transferred inro the cells after the subculture. The above-described cells and the control non-treated HaCaT cells were plated at 7.0×10^5 per a φ60-mm dish, respectively. After 24 hours, the cells were picked up and well suspended in 2 mL of 5% FBS supplemented DMEM medium, and were filtered through a Nylon Mesh (Kyoshin Rikoh Inc., Japan), and the EGFP fluorescence intensity thereof was measured with a Flow Cytometer (EPICS, BeckmanCoulter). The analysis was performed using software FlowJo (Tree Star, Ashland Oreg.), so that the EGFP fluorescence intensity of each cell was represented as a histogram.
# HaCaT-hSIRT1p-EGFP cells were plated at 1.7×10^6 cells in a φ60-mm dish (as measured by flow cytometry) or at 2.0×10^4 cells/well in a 96-well plate (as measured by an IN Cell Analyzer 1000). After 24 hours, 10 μM of each polyphenol or terpenoid dissolved in DMSO (Wako Pure Chemical Industries, Ltd.) was added thereto. Note that as a negative control, the same amount of DMSO was added without polyphenol or terpenoid, and as a positive control, 10 μM resveratrol was added. At 24 hours after the addition of the various polyphenols or terpenoids or the controls, the fluorescence intensity was measured by flow cytometry.
Compound,relative gene expression level of hSIRT1 (sirtuin gene hSIRT1),relative hSIRT1 promoter activity (hSIRT1 promoter [1]),EGFP fluorescence intensity (hSIRT1 promoter activity) (hSIRT1 promoter [2])
CC1(C)[C@@H](O[C@H]2O[C@H](C(=O)O)[C@@H](O)[C@H](O)[C@H]2O[C@@H]2O[C@H](C(=O)O)[C@@H](O)[C@H](O)[C@H]2O)CC[C@]2(C)[C@H]3C(=O)C=C4[C@@H]5C[C@@](C)(C(=O)O)CC[C@]5(C)CC[C@@]4(C)[C@]3(C)CC[C@@H]12 [glycyrrhizin],hSIRT1 transcription enhancing effect was observed,–,–
O=C(O[C@H]1[C@@H]2OC(=O)c3cc(O)c(O)c(O)c3-c3c(cc(O)c(O)c3O)C(=O)OC[C@H]2OC(O)[C@@H]1OC(=O)c1cc(O)c(O)c(O)c1)c1cc(O)c(O)c(O)c1 (stereo partly shown) [tellimagrandin I],–,particularly strong hSIRT1 promoter enhancing activity,hSIRT1 expression effect on skin epidermis cells was seen
O=C(O[C@@H]1O[C@@H]2COC(=O)c3cc(O)c(O)c(O)c3-c3c(cc(O)c(O)c3O)C(=O)O[C@H]2[C@H](OC(=O)c2cc(O)c(O)c(O)c2)[C@H]1OC(=O)c1cc(O)c(O)c(O)c1)c1cc(O)c(O)c(O)c1 [eugeniin],hSIRT1 transcription enhancing effect was observed,particularly strong hSIRT1 promoter enhancing activity,–
C[C@@]12CCc3occc3[C@H]1CC[C@@]13C[C@@H](CC[C@H]12)[C@@](O)(CO)C3 [cafestol],hSIRT1 transcription enhancing effect was observed,particularly strong hSIRT1 promoter enhancing activity,–
